# Results from patent EP0430129A2, “Novel phenylethylene derivatives, processes for preparing the same and intermediates therefor” (TANABE SEIYAKU CO., LTD., priority 1989, dated 1991).
# Target: T1, Rat Hepatic Microsomal HMG-CoA reductase (HMGR) (Rattus norvegicus, UniProt P51639)
# T1 construct: Microsomes prepared from liver of rats administered with cholestyramine; from tissue
# T1 sequence (P51639 1-887): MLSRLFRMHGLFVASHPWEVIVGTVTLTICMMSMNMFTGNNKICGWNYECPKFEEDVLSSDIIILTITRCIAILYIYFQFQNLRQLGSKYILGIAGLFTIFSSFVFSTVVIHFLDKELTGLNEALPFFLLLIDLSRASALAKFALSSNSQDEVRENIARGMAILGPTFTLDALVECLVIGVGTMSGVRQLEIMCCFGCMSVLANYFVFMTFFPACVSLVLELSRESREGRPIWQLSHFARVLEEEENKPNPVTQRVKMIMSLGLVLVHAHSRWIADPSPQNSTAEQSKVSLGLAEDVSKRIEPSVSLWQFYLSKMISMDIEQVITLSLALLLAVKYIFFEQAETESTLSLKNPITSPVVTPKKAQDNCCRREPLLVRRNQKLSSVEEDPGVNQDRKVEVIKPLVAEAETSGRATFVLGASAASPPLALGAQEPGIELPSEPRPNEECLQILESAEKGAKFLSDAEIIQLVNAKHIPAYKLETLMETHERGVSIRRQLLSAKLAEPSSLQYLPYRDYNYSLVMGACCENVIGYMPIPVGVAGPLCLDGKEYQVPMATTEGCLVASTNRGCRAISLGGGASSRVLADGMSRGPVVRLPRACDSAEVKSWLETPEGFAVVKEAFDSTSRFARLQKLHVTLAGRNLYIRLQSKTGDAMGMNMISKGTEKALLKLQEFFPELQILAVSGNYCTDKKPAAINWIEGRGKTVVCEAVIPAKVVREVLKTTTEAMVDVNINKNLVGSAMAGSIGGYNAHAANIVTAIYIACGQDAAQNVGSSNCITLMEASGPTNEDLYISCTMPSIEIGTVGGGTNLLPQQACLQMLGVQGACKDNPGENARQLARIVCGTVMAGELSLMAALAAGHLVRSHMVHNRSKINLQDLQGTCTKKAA
# Assay: Inhibitory activity against rat hepatic microsomal HMG-CoA reductase (14C-HMG-CoA substrate, 14C-mevalonolactone measured by TLC and scintillation counting)
# Format: biochemical
# Conditions: microsomes from liver of rats administered with cholestyramine, incubated for 10 minutes; for inhibition at 1 µM: Concentration of test compound 10^-6 M
# Method: Experiment: Inhibitory activity against Rat Hepatic Microsomal HMG-CoA reductase (HMGR)
# HMGR activities of microsomes are measured in accordance with the method of N. L. Young et al., Methods in Enzymology, 71, 498 (1981).
# Microsomes prepared from liver of rats administered with cholestyramine were mixed with a solution of the compounds to be tested in dimethyl sulfoxide and ¹⁴C-HMG-CoA (substrate). After the mixture was incubated for 10 minutes, the reaction was quenched with 6N hydrochloric acid and the mixture was allowed to stand at 37°C for 15 minutes, followed by centrifugation. The supernatant was spotted on thin layer chromatography (TLC; Kieselgel 60F254 manufactured by Merck) and developed with toluene/acetone (1:1). The spot of ¹⁴C-mevalonolactone was collected and the amount of isotope was measured with a scintillation counter (Type 4640 TRI-CARB. manufactured by Paccard) to calculate an amount of the formed mevalonolactone. By comparing amounts of the formed mevalonolactone in the group treated with test compounds and the control group (without test compounds), HMGR activity inhibition rates of the test compounds were calculated.
Structure (SMILES),inhibition at 100 µM (Concentration of test compound 10^-4 M) [%],inhibition at 1 µM [%]
"O=C(O)C[C@H](O)C[C@H](O)/C=C/C(=C(c1ccc(F)cc1)c1ccc(F)cc1)c1ccccc1 (racemic) [(±)-(3R*,5S*) [r3]]",96,79
"O=C(O)C[C@H](O)C[C@H](O)/C=C/C(=C(c1ccc(F)cc1)c1ccc(F)cc1)c1ccco1 (single isomer, unassigned) [(-)-(3R*,5S*)]",–,93
